From US20160038526A1, “TREATMENT OF PROSTATE CANCER” (THOMAS JEFFERSON UNIVERSITY, priority 2012, published 2016)

Assays:
Stat5a/b [1] = test: Clinical prostate cancers ex vivo in explant organ cultures: nuclear Stat5a/b immunohistochemistry; assay type: cell-based, human; conditions: 7 days, N6BAP 5, 10, 25, 50 and 100 μM; C5 100 m
Protocol: The specimens comprised de-identified excess tissue obtained after the completion of pathology diagnosis. A zero-sample prior to organ culture was formalin-fixed for each individual prostate cancer for the analysis of the nuclear Stat5a/b status. The prostate organ cultures were performed as described earlier (Ahonen et al., Endocrinology (2002), 143:228-238). Briefly, prostate cancer tissue was cut into approximately 1 mm^3 pieces in a plain culture medium and transferred onto lens papers lying on stainless steel grids in petri dishes. The medium was phenol-free medium 199 with Earle's salts (Sigma) containing dialyzed 5% fetal calf serum, G-penicillin (100 IU/ml), streptomycin sulfate ([…]), and glutamine (100 μg/ml). […] Tissue explants were cultured in a medium containing the N6BAP or control compound C5 at indicated concentrations (C5: […]; N6BAP: 5, 10, 25, 50 and 100 μM) 7 days, after which the explants were fixed in formalin and analyzed for Stat5a/b activation and viability of prostate cancer epithelial compartment. Viability of the epithelial cells in the prostate cancer explants at the end of the cultures were scored by counting the viable epithelial cells per explant.
Nuclear Stat5a/b indexes were determined by counting the Stat5-positive cells per 500 epithelial cells in the cultured explants in each treatment group.

Stat5a/b [2] = test: Electrophoresis mobility shift assay (EMSA) of Stat5a/b binding to DNA, nuclear extracts of transfected COS-7 cells; assay type: cell-based; conditions: 2 hours pretreatment, 10 nmol/L Prl 30 minutes
Protocol: COS-7 cells were transfected with plasmids expressing Stat5a (pStat5a) and PrlR (pPrlR) using FuGENE6. After 24 hours, the cells were starved in serum-free medium for 16 hours and then pretreated with N6BAP or the control compound C5 for 2 hours and the stimulated with 10 nmol/L Prl for 30 minutes. Nuclear extracts were prepared and a gel EMSA was performed as previously described (Ahonen et al., Endocrinology 2002, 143:228-238; Nevalainen et al., Mol Endocrinol 2002, 16:1108-1124). Double stranded Stat5a/b-binding oligonucleotide probe (upper strand sequence: 5′-[…]-3′) (Boucheron et al., J Biol Chem (1998), 273:33936-33941) were end-labeled with 50 μCi of γ-^32P-ATP (5000 ci/mMol) and incubated (1 ng per reaction) with 10 μl of nuclear extracts in the final volume of 20 μl of the binding mixture (50 mM TrisHCl, pH 7.4, 25 mM MgCl2, 500 mM KCl, 5 mM DTT, 50% glycerol) and 1 μl of 1 mg/ml Poly d[(I:C)]. For a supershift control, the samples were preincubated with anti-Stat5a or anti-Stat5b antibody (Millipore) or NRS as indicated. Polyacrylamide gels (5%) containing 5% glycerol and 0.25×Tris-borate/EDTA were pre-run in 0.25×Tris-borate/EDTA buffer at 4-10° C. for 2-4 h at 300V. The gels were run at room temperature for 2.33 hours at 200 V, dried and exposed to x-ray films (X-Omat, Eastman Kodak Co.). […]

CWR22Rv1 cells [3] = test: Nucleosomal DNA fragmentation (nucleosomal ELISA) in CWR22Rv1 cells; assay type: cell-based, human; conditions: 24 μM N6BAP
CWR22Rv1 cells [4] = test: Cell viability, MTS metabolic activity assay, CWR22Rv1; assay type: cell-based, human; conditions: CWR22Rv1, 72 h
Protocol: (§1) CWR22Rv1 prostate cancer cells were treated with N6BAP or the control compound C5 (Ctrl) at 25 μM concentration or vehicle for 24 h. Following trypan blue exclusion, the attached viable vs. de-attached dead cells were counted. […] The bars indicate mean±SD of triplicate wells. In another assay, CWR22Rv1, LNCaP and DU145 cells were treated with N6BAP, the control compound C5 (Ctrl) or vehicle at indicated concentrations. The fraction of alive cells was determined by MTS ([…]) metabolic activity assay (CellTiter 96® AQueous Assay kit). The results are shown in FIGS. 9C, 9D and 9E, respectively.

DU145 cells = test: Cell viability, MTS metabolic activity assay, DU145; assay type: cell-based, human; conditions: DU145, 72 hours
Protocol: as §1

## O=P(O)(O)OC[C@H]1O[C@@H](n2cnc3c(NCc4ccccc4)ncnc32)[C@H](O)[C@@H]1O [N6BAP, N^6-benzyladenosine-5′-monophosphate]
Stat5a/b [1]
  nuclear Stat5 expression in explant organ cultures: reduced the levels of nuclear Stat5 expression
Stat5a/b [2]
  binding of Stat5a/b to DNA (EMSA): inhibited binding of Stat5a/b to DNA
CWR22Rv1 cells [3]
  DNA fragmentation (apoptosis): N6BAP-induced DNA fragmentation
CWR22Rv1 cells [4]
  number of viable cells: decreases the number of viable cells
DU145 cells
  number of viable cells: decreases the number of viable cells
